Experimental data published in US20240217947A1, “Morpholinylquinazoline Compound, Pharmaceutical compositions thereof and Use Thereof” (SHANGHAI YINGLI PHARMACEUTICAL CO., LTD, priority 2022, published 2024).

What was measured:
Format in all cases: biochemical
HDAC6 = biological target: T1, HDAC6 (Homo sapiens, UniProt Q9UBN7); assay: HDAC6 enzyme activity inhibition IC50 evaluation experiment; details: HDAC6 5 nM, acetylated peptide 11 μM, trypsin, fluorescence
T1 sequence (Q9UBN7 1-1215): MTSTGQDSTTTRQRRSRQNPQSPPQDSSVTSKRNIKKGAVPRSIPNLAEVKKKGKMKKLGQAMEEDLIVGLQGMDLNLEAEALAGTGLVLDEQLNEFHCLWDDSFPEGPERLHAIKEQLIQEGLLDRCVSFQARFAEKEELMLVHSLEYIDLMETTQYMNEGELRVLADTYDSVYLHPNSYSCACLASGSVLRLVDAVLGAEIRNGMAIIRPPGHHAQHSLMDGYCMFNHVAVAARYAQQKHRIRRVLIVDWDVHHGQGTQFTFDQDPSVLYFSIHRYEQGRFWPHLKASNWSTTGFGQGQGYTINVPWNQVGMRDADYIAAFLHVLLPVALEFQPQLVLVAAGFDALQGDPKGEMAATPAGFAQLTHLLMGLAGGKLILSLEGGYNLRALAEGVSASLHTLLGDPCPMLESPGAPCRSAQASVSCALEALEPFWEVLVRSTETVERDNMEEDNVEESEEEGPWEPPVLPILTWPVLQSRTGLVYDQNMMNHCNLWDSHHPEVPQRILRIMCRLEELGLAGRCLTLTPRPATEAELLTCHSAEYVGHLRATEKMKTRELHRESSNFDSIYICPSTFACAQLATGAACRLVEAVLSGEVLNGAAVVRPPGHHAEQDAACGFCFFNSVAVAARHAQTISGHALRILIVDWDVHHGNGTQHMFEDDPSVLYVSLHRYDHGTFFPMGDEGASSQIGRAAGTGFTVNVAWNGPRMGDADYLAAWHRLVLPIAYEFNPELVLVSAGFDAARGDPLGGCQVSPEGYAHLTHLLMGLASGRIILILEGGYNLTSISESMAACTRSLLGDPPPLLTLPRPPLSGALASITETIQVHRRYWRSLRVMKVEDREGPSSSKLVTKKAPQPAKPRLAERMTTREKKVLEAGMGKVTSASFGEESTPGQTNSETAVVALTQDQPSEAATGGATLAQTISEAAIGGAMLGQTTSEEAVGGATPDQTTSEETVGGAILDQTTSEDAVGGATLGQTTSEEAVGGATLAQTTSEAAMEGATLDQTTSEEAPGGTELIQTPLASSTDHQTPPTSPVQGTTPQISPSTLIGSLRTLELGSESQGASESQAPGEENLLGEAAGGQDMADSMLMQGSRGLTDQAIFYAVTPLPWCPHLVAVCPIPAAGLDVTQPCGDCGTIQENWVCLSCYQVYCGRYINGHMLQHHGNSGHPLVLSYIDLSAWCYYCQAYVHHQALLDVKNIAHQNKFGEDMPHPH
Method: Effect Example 2 HDAC1, HDAC2, HDAC3, HDAC6 enzyme activity inhibition IC50 evaluation experiment
Buffer solution (50 mM Tris 7.5, 0.01% Tween-20, 50 mM NaCl) was prepared according to the kit instructions, and the enzyme solution and substrate solution (acetylated peptide with the addition of trypsin) were prepared using the buffer solution. The test compound samples were dissolved with DMSO and added to the screening system at a certain starting concentration such as 10 μM, 3-fold dilution, while setting up a DMSO control and no-enzyme control. The enzyme reaction system includes: buffer, enzyme [final concentration: HDAC1=10 nM, HDAC2=4 nM, HDAC3=7 nM, HDAC6=5 nM], substrate (acetylated peptide) [final concentration: Peptide(HDAC1)=8 μM, Peptide(HDAC2)=10 μM, Peptide(HDAC3)=5 μM, Peptide(HDAC6)=11 μM], trypsin [final concentration: Trypsin(HDAC1,2,3)=0.05 μM, Trypsin(HDAC6)=0.1 μM], etc. The enzymes and compounds were reacted at room temperature for 15 min. After adding the substrate and Trypsin, centrifugation was performed for 1 min, and the fluorescence signal data (excitation wavelength 355 nM/emission wavelength 460 nm) was read continuously for 60 min using Envision, and the linear reaction segment was selected to obtain the slope and thus calculate the inhibition rate at that concentration. The IC50 value was obtained by fitting the curve using the formula Y=Bottom+(Top-Bottom)/(1+(IC50/X)^HillSlope).

PI3Kδ = PI3Kδ (Homo sapiens, UniProt O00329); assay: PI3Kδ enzyme activity inhibition IC50 evaluation assay (ADP-Glo Kinase Assay); details: ATP 25 μM, PIP2 50 μg/mL, 1 hour room temperature, read-out: PI3K-δ IC50
PI3Kδ, sequence (O00329 whole entry, species assumed): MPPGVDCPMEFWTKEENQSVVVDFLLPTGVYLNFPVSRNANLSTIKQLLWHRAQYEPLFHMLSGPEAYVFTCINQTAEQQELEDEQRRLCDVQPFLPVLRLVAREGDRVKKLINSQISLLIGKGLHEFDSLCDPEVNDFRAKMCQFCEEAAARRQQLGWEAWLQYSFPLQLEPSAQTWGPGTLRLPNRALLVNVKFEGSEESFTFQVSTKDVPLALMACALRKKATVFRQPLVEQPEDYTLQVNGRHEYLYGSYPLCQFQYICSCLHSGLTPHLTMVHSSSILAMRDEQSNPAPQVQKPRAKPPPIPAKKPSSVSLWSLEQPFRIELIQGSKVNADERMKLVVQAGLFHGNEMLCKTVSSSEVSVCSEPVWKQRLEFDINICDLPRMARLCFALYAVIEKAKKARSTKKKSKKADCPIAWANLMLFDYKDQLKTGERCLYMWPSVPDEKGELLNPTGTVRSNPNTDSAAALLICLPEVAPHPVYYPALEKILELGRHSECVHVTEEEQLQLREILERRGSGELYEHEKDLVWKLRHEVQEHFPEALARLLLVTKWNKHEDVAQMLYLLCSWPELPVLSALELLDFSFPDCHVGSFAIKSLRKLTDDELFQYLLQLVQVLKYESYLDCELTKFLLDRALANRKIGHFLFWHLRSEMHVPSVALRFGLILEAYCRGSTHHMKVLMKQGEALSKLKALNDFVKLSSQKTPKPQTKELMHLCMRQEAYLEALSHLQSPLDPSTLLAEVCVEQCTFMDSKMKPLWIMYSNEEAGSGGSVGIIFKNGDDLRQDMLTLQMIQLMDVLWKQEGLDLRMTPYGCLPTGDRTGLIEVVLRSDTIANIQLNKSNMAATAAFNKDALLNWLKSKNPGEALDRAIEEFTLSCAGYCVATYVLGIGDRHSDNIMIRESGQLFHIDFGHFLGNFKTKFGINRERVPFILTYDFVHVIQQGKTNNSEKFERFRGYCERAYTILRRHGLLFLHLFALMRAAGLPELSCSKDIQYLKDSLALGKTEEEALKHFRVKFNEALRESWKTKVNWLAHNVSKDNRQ
PI3Kδ, sequence (P27986 whole entry partner, species assumed): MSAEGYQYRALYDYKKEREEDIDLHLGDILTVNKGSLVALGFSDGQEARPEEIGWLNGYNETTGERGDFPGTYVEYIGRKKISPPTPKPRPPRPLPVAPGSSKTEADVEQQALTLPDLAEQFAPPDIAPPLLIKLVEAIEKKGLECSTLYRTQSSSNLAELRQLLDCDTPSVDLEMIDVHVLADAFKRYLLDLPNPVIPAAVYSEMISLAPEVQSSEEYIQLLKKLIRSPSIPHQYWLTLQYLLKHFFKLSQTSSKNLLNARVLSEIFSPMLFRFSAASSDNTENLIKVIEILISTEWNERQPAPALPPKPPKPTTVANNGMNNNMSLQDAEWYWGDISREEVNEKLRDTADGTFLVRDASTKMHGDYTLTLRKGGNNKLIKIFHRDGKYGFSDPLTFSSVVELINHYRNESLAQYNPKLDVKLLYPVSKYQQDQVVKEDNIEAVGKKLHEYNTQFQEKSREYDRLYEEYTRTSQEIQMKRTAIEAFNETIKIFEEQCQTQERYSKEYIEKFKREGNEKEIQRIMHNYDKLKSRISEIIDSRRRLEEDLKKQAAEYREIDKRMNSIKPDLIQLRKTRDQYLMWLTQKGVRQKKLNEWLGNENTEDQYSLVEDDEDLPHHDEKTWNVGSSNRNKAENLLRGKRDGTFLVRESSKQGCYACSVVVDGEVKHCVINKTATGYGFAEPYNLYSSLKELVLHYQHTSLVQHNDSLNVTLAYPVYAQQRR
Method: (§1) Effec Example 1 IC50 evaluation assay for PI3Kα, PI3Kδ, PI3Kβ and PI3Kγ enzyme activity inhibition
(§2) The experiment was performed using the ADP-Glo Kinase Assay kit, following the instructions. The following buffer solutions were prepared: 50 mM HEPES, pH 7.5, 3 mM MgCl2, 1 mM EGTA, 100 mM NaCl, 0.03% CHAPS, 2 mM DTT. The test compound samples were dissolved in DMSO and added to the screening system at a certain starting concentration such as 10 μM, 3-fold dilution, while setting up both DMSO control and no kinase control. The optimal concentrations of PI3Kα, PI3Kδ, PI3Kβ and PI3Kγ enzymes, substrate (PIP2) and ATP were prepared in buffer. The enzyme reaction system included: buffer, ATP 25 μM, kinase substrate (PIP2, 50 μg/mL), kinases [PI3Kα (0.15 μg/mL), PI3Kδ (1.2 μg/mL), PI3Kβ (0.3 μg/mL) and PI3Kγ (2.5 μg/mL)], etc. The reaction system was reacted at room temperature for 1 hour. The reaction was terminated by adding a termination reagent (ADP-Glo reagent, 5 μL), and the ADP content in the system was detected using a detection reagent (Kinase Detection Reagent, 10 μL). Signal data were collected using the Envision instrument. Calculate the percentage of (%) inhibition according to the following formula: % inhibition=(DMSO control signal value−sample signal value)/(DMSO control signal value−no-kinase control signal value). The IC50 value was obtained by fitting the curve using the formula Y=Bottom+(Top-Bottom)/(1+(IC50/X)^HillSlope).

PI3Kα = PI3Kα (Homo sapiens, UniProt P42336); assay: PI3Kα enzyme activity inhibition IC50 evaluation assay (ADP-Glo Kinase Assay); details: ATP 25 μM, PIP2 50 μg/mL, 1 hour room temperature, read-out: PI3K-α IC50
PI3Kα, sequence (P42336 whole entry, species assumed): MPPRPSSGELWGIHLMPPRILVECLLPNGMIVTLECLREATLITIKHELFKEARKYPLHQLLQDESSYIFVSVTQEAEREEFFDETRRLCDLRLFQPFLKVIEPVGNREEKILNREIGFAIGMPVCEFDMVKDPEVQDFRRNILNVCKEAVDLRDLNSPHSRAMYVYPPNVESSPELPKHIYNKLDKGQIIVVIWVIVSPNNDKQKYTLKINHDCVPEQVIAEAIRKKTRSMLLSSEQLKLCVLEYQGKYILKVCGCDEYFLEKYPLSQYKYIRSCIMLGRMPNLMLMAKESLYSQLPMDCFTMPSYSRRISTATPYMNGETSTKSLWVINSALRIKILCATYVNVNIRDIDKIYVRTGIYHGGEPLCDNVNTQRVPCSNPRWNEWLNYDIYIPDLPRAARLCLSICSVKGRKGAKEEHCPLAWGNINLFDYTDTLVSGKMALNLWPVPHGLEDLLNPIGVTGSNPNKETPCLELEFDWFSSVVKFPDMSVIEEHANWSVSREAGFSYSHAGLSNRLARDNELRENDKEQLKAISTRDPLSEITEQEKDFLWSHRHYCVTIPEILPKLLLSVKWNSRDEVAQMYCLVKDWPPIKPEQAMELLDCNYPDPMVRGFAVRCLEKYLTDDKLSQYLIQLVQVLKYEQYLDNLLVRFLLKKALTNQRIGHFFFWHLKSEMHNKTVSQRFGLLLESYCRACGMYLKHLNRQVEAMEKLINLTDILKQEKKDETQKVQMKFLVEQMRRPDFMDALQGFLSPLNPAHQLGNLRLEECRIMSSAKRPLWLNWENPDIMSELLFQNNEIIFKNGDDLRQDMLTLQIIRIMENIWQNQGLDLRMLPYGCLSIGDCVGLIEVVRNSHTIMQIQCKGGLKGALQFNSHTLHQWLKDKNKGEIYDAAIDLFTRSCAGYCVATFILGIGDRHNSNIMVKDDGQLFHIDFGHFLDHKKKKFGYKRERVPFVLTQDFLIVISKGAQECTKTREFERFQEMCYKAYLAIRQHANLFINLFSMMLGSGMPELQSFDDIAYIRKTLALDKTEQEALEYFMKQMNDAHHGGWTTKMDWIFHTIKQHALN
PI3Kα, sequence (P27986 whole entry partner, species assumed): as the sequence (P27986 whole entry partner, species assumed) above
Method: as §1, §2

Compound | IC50 (HDAC6) [nM] | IC50 (PI3Kδ) [nM] | IC50 (PI3Kα) [nM]
COc1ncc(-c2nc(N3CCOCC3)nc3c(CN4CCN(c5ccc(C(=O)NO)cc5F)CC4)cc(F)cc23)cc1NS(C)(=O)=O [Compound 34] | 10 to 100 | 10 to 100 | 
COc1ncc(-c2nc(N3CCOCC3)nc3c(OCc4ccc(C(=O)NO)cc4F)cc(F)cc23)cc1NS(C)(=O)=O [Compound 38] |  | 10 to 100 | 
COc1ncc(-c2nc(N3CCOCC3)nc3c(CN4CCN(Cc5ncc(C(=O)NO)cn5)CC4)cc(F)cc23)cc1NS(C)(=O)=O [Compound 12] | 100 to 1000 | ≤ 10 | 100 to 1000
COc1ncc(-c2nc(N3CCOCC3)nc3c(OCCCCCC(=O)NO)cc(F)cc23)cc1NS(C)(=O)=O [Compound 8] | ≤ 10 | 10 to 100 | 100 to 1000
COc1ncc(-c2nc(N3CCOCC3)nc3c(O[C@H]4CC[C@H](N5CCC(C(=O)NO)CC5)CC4)cc(F)cc23)cc1NS(C)(=O)=O [Compound 32] | 1000 to 10000 | ≤ 10 | 
COc1ncc(-c2nc(N3CCOCC3)nc3c(OC4CCN(c5ccc(C(=O)NO)cc5F)CC4)cc(F)cc23)cc1NS(C)(=O)=O [Compound 31] | 10 to 100 | 10 to 100 | 
COc1ncc(-c2nc(N3CCOCC3)nc3c(CN4CCC(c5ccc(C(=O)NO)c(F)c5)CC4)cc(F)cc23)cc1NS(C)(=O)=O [Compound 18] | 100 to 1000 | ≤ 10 | 1000 to 10000
COc1ncc(-c2nc(N3CCOCC3)nc3c(OCCc4ccc(C(=O)NO)cc4F)cc(F)cc23)cc1NS(C)(=O)=O [Compound 37] |  | 100 to 1000 | 
COc1ncc(-c2nc(N3CCOCC3)nc3c(CN4CCC(c5ccc(C(=O)NO)cc5)CC4)cc(F)cc23)cc1NS(C)(=O)=O [Compound 23] | 10 to 100 | ≤ 10 | 100 to 1000
COc1ncc(-c2nc(N3CCOCC3)nc3c(CN4CCN(Cc5ccc(C(=O)NO)cc5)CC4)cc(F)cc23)cc1NS(C)(=O)=O [Compound 10] | 10 to 100 | ≤ 10 | 100 to 1000
COc1ncc(-c2nc(N3CCOCC3)nc3c(OC4CCN(Cc5ccc(C(=O)NO)cc5F)CC4)cc(F)cc23)cc1NS(C)(=O)=O [Compound 33] | 10 to 100 | 10 to 100 | 
COc1ncc(-c2nc(N3CCOCC3)nc3c(CN4CCC(c5cc(F)c(C(=O)NO)cc5F)CC4)cc(F)cc23)cc1NS(C)(=O)=O [Compound 20] | 100 to 1000 | ≤ 10 | 1000 to 10000
COc1ncc(-c2nc(N3CCOCC3)nc3c(CN4CCC(c5c(F)cc(C(=O)NO)cc5F)CC4)cc(F)cc23)cc1NS(C)(=O)=O [Compound 19] | 100 to 1000 | ≤ 10 | 1000 to 10000
COc1ncc(-c2nc(N3CCOCC3)nc3c(CN4CCC(c5ccc(C(=O)NO)cc5F)CC4)cc(F)cc23)cc1NS(C)(=O)=O [Compound 17] | 10 to 100 | ≤ 10 | 1000 to 10000
COc1ncc(-c2nc(N3CCOCC3)nc3c(CN4CC(OCCOCC(=O)NO)C4)cc(F)cc23)cc1NS(C)(=O)=O [Compound 16] | 1000 to 10000 | 10 to 100 | 100 to 1000
COc1ncc(-c2nc(N3CCOCC3)nc3c(CN4CCC(N5CCC(C(=O)NO)CC5)CC4)cc(F)cc23)cc1NS(C)(=O)=O [Compound 14] | 1000 to 10000 | 10 to 100 | 1000 to 10000

Results, then the compound that gave them:

IC50 (HDAC6) [nM] | IC50 (PI3Kδ) [nM] | IC50 (PI3Kα) [nM] | Compound
100 to 1000 | ≤ 10 | 100 to 1000 | COc1ncc(-c2nc(N3CCOCC3)nc3c(CN4CCC(CCCCC(=O)NO)CC4)cc(F)cc23)cc1NS(C)(=O)=O [Compound 15]
10 to 100 | 10 to 100 | 1000 to 10000 | CS(=O)(=O)Nc1cncc(-c2nc(N3CCOCC3)nc3c(CN4CCC(CCCC(=O)NO)CC4)cc(F)cc23)c1 [Compound 24]
> 10000 | ≤ 10 | 100 to 1000 | COc1ncc(-c2nc(N3CCOCC3)nc3c(CN4CCC(CCNC(=O)NO)CC4)cc(F)cc23)cc1NS(C)(=O)=O [Compound 28]
100 to 1000 | ≤ 10 | 1000 to 10000 | COc1ncc(-c2nc(N3CCOCC3)nc3c(CN4CCC(OCCCC(=O)NO)CC4)cc(F)cc23)cc1NS(C)(=O)=O [Compound 13]
 | 10 to 100 | 1000 to 10000 | O=C(CCCC1CCN(Cc2cc(F)cc3c(-c4cncc(NS(=O)(=O)C5CC5)c4)nc(N4CCOCC4)nc23)CC1)NO [Compound 27]
100 to 1000 | ≤ 10 |  | COc1ncc(-c2nc(N3CCOCC3)nc3c(CN4CCC(/C=C/C(=O)NO)CC4)cc(F)cc23)cc1NS(C)(=O)=O [Compound 5]
 | ≤ 10 | 100 to 1000 | COc1ncc(-c2nc(N3CCOCC3)nc3c(CN4CCC(c5ccc(C(=O)NO)cc5F)CC4)cc(F)cc23)cc1NS(=O)(=O)C(F)(F)F [Compound 29]
1000 to 10000 | ≤ 10 | 100 to 1000 | COc1ncc(-c2nc(N3CCOCC3)nc3c(CN4CCC(C(C)(C)OCC(=O)NO)CC4)cc(F)cc23)cc1NS(C)(=O)=O [Compound 22]
1000 to 10000 | 10 to 100 | 1000 to 10000 | COc1ncc(-c2nc(N3CCOCC3)nc3c(CN4CCC(C(=O)NO)CC4)cc(F)cc23)cc1NS(C)(=O)=O [Compound 1]
10 to 100 | 10 to 100 | 1000 to 10000 | COc1ncc(-c2nc(N3CCOCC3)nc3c(CN4CCC(CCCC(=O)NO)CC4)cc(F)cc23)cc1NS(=O)(=O)C1CC1 [Compound 25]
100 to 1000 | ≤ 10 | 1000 to 10000 | COc1ncc(-c2nc(N3CCOCC3)nc3c(CN4CCC(OCCC(=O)NO)CC4)cc(F)cc23)cc1NS(C)(=O)=O [Compound 11]
10 to 100 | ≤ 10 | 100 to 1000 | COc1ncc(-c2nc(N3CCOCC3)nc3c(CN4CCC(CCCC(=O)NO)CC4)cc(F)cc23)cc1NS(=O)(=O)C(F)(F)F [Compound 26]
100 to 1000 | ≤ 10 |  | COc1ncc(-c2nc(N3CCOCC3)nc3c(CN4CCN(CCCCC(=O)NO)CC4)cc(F)cc23)cc1NS(C)(=O)=O [Compound 6]
